Experimental data taken from article PMC6572996, “Silver(I) Complexes of the Pharmaceutical Agents Metronidazole and 4-Hydroxymethylpyridine: Comparison of Cytotoxic Profile for Potential Clinical Application” (Molecules, 2019).

Columns and labels:
Balb/c 3T3 cells [1] = experiment: MTT assay (mitochondrial activity), Balb/c 3T3; type: cell-based, mouse; conditions: for Lowest concentration with significant (p ≤ 0.05) inhibition of mitochondrial activity (MTT): Balb/c 3T3, 72 h, vs negative control 0.1% DMSO
Description: (§1) Data obtained from the measurement of the optical density in these assays were transformed to percentages in relation to the control group, considered to be 100% for the MTT, NRU, and TPC assays and 0% for the LDH assay (Figure 1).
(§2) The human hepatoma cell line (HepG2) was purchased from the American Type Culture Collection (ATCC HB-8065). These cells were cultured in Minimum Essential Medium Eagle (MEME) (ATCC). The murine fibroblast cell line (Balb/c 3T3 clone A31) (gift from Department of Swine Diseases of the National Veterinary Research Institute in Pulawy) was cultured in Dulbecco’s Modified Eagle’s Medium (DMEM) (ATCC). The media were supplemented with 10% BCS (Balb/c 3T3), 10% FBS (HepG2), 1% L-glutamine, and 1% antibiotic solution. The cells were maintained in 75 cm^2 cell culture flasks (Nunc, Roskilde, Denmark) in a humidified incubator, NuAire (Plymouth, MN, USA) at 37 °C, in an atmosphere of 5% CO2. The medium was refreshed every two or three days and the cells were trypsinized by 0.25% trypsin–0.02% EDTA after reaching 70–80% confluence. Single cell suspensions were prepared and adjusted to a density of 2 × 10^5 cells/mL (HepG2) and 5 × 10^4 cells/mL (Balb/c 3T3). The cell suspension was transferred to 96-well plates (100 µL/well) and incubated for 24 h before the exposure to the study compounds.
(§3) The concentration ranges of compounds were chosen according to their solubility and their plasma level. Each compound was dissolved in DMSO. The final concentration of DMSO was 0.1% in the medium. The same final concentrations of the solvent and the 1% Trition-X 100 solution were used as the negative and positive controls, respectively. […] All compound solutions in the medium were freshly prepared and protected from light. […] The concentration range was selected on the basis of results from previous studies. Each concentration was tested in six replicates with three independent experiments. Cytotoxicity was assessed after 72 h of exposure of the cells to the compounds. The medium was not changed during the incubation time.
(§4) The metabolic activity of living cells was assessed by measuring the activity of dehydrogenases. After incubation of the cells with the compounds, a 10 μL portion of the MTT solution (5 mg/ml in PBS) was added to each well of the 96-well plates and incubated. After 3 h, the MTT solution was removed and the intracellular formazan crystals were dissolved in 100 µl DMSO. The plate was shaken for 15 min at room temperature and transferred to a microplate reader (LabSystems Multiskan RC, Thermo Fisher Scientific, Waltham, MA, USA) to measure the absorbance at 570 nm, using blanks as a reference. Cytotoxicity was expressed as a percentage of the negative control (0.1% DMSO).
(§5) The results of the tests were expressed as a mean ± SD. The experiments were performed in three independent repetitions. Statistical analysis was performed using GraphPad Prism 5 (San Diego, CA, USA). One-way analysis of variance (ANOVA) followed by Dunnett’s post-hoc test was applied. The 50% inhibition (cytotoxicity) concentrations (IC50) were derived from the dose–response curve plotted with the concentration of the compound (X-axis) vs. cell viability percent (Y-axis). The IC50 values were calculated by GraphPad Prism 5 software (San Diego, CA, USA). Statistical comparisons among IC50 values were performed by the analysis of variance (ANOVA) followed by the Tukey test. Values of p ≤ 0.05 were considered statistically significant.

Balb/c 3T3 cells [2] = experiment: TPC assay (total protein content), Balb/c 3T3; type: cell-based, mouse; conditions: for Lowest concentration with significant (p ≤ 0.05) decrease of total protein content (TPC): Balb/c 3T3, 72 h, vs negative control 0.1% DMSO
Description: as §1, §2, §3
(§6) The assay was based upon staining total cellular protein (proliferation). After incubation, the medium containing the compound was removed and 100 µL of Coomassie Brilliant Blue R-250 dye were added to each well. The plate was shaken for 10 min. Then, the stain was removed and the cells were rinsed twice with 100 µL of washing solution (glacial acetic acid/ethanol/water). After that, a 100 µL portion of the desorbing solution (1 M potassium acetate) was added and plates were shaken again for 10 min. The absorbance was measured at 595 nm in a microplate reader (LabSystems Multiskan RC, Thermo Fisher Scientific, Waltham, MA, USA) using a blank as a reference. Cytotoxicity was expressed as a percentage of the negative control (0.1% DMSO).
as §5

HepG2 cells [3] = experiment: NRU assay (lysosomal activity), HepG2; type: cell-based, human; conditions: for Lowest concentration with significant (p ≤ 0.05) inhibition of lysosomal activity (NRU): HepG2, 72 h, vs negative control 0.1% DMSO
Description: as §1, §2, §3
(§7) The assay, based on the staining of living cells by neutral red, was performed according to the protocol described by Borenfreund and Puerner. After incubation, the medium containing the compound was removed and the cells were washed with PBS. Then, a 100 µL/well of NR solution (50 µg/mL) was added for 3 h. After that time, the cells were washed with PBS. The dye from viable cells was released by extraction with a mixture of acetic acid, ethanol, and water. After 10 min of shaking, the absorbance of the dissolved NR was measured at 540 nm in a microplate reader (LabSystems Multiskan RC, Thermo Fisher Scientific, Waltham, MA, USA) using a blank as a reference. Cytotoxicity was expressed as a percentage of the negative control (0.1% DMSO).
as §5

HepG2 cells [4] = experiment: MTT assay (mitochondrial activity), HepG2; type: cell-based, human; conditions: for Lowest concentration with significant (p ≤ 0.05) inhibition of mitochondrial activity (MTT): HepG2, 72 h, vs negative control 0.1% DMSO
Description: as §1, §2, §3, §4, §5

HepG2 cells [5] = experiment: Leakage LDH assay (cellular membrane integrity), HepG2; type: cell-based, human; conditions: for Lowest concentration with significant (p ≤ 0.05) disintegration of the cellular membrane (LDH): HepG2, 72 h, vs negative control 0.1% DMSO
Description: as §1, §2, §3
(§8) The integrity of the plasma membrane was assessed using the test of lactate dehydrogenase (LDH) release, which was monitored using the commercially available Cytotoxicity Detection Kit (LDH) (Roche Diagnostics, Warsaw, Poland). The medium (100 µL/well) without cells was transferred into the corresponding wells of an optically clear 96-well flat bottom microplate and a 100 µl reaction mixture was added to each well. Then, the plates were incubated for 30 min at room temperature in darkness. After that time, a 50 µL/well 1 M HCl was added to stop the reaction. The absorbance was measured at 492 nm in a microplate reader (LabSystems Multiskan RC, Thermo Fisher Scientific, Waltham, MA, USA) using a blank as a reference.
as §5

Balb/c 3T3 cells [6] = experiment: Leakage LDH assay (cellular membrane integrity), Balb/c 3T3; type: cell-based, mouse; conditions: for Lowest concentration with significant (p ≤ 0.05) disintegration of the cellular membrane (LDH): Balb/c 3T3, 72 h, vs negative control 0.1% DMSO
Description: as §1, §2, §3, §8, §5

Balb/c 3T3 cells [7] = experiment: NRU assay (lysosomal activity), Balb/c 3T3; type: cell-based, mouse; conditions: for Lowest concentration with significant (p ≤ 0.05) inhibition of lysosomal activity (NRU): Balb/c 3T3, 72 h, vs negative control 0.1% DMSO
Description: as §1, §2, §3, §7, §5

HepG2 cells [8] = experiment: TPC assay (total protein content), HepG2; type: cell-based, human; conditions: for Lowest concentration with significant (p ≤ 0.05) decrease of total protein content (TPC): HepG2, 72 h, vs negative control 0.1% DMSO
Description: as §1, §2, §3, §6, §5

[9] = tested on: murine melanoma (B16) cell line; parameters: method as in PMID 26828469; conditions: same observation as in this study; cited from earlier work
10T1/2 cell line = tested on: 10T1/2 cell line; parameters: method as in PMID 26828469; conditions: same observation as in this study; cited from earlier work
[10] = Cytotoxicity over four assays in both cell lines; type: cell-based; conditions: mouse (Balb/c 3T3) and human (HepG2), Balb/c 3T3 clone A31 fibroblasts and HepG2 hepatoma cells, mostly greater than 50%, read-out: Viability of the cells at the highest concentrations used
Description: as §1
as §2, with “Single cell suspensions were prepared and adjusted to a density of 2 × 10^5 cells/mL (HepG2) and 5 × 10^4 cells/mL (Balb/c 3T3). The cell suspension was transferred to 96-well plates (100 µL/well) and incubated for 24 h before the exposure to the study compounds.” left out
The concentration ranges of compounds were chosen according to their solubility and their plasma level. […] Cytotoxicity was assessed after 72 h of exposure of the cells to the compounds. […]
The results of the tests were expressed as a mean ± SD. […] The IC50 values were calculated by GraphPad Prism 5 software (San Diego, CA, USA). […]

SMILES | Lowest concentration with significant (p ≤ 0.05) inhibition of mitochondrial activity (MTT) (Balb/c 3T3 cells [1]) [µM] | Lowest concentration with significant (p ≤ 0.05) decrease of total protein content (TPC) (Balb/c 3T3 cells [2]) [µM] | Lowest concentration with significant (p ≤ 0.05) inhibition of lysosomal activity (NRU) (HepG2 cells [3]) [µM] | Lowest concentration with significant (p ≤ 0.05) inhibition of mitochondrial activity (MTT) (HepG2 cells [4]) [µM] | Lowest concentration with significant (p ≤ 0.05) disintegration of the cellular membrane (LDH) (HepG2 cells [5]) [µM] | Lowest concentration with significant (p ≤ 0.05) disintegration of the cellular membrane (LDH) (Balb/c 3T3 cells [6]) [µM] | Lowest concentration with significant (p ≤ 0.05) inhibition of lysosomal activity (NRU) (Balb/c 3T3 cells [7]) [µM] | Lowest concentration with significant (p ≤ 0.05) decrease of total protein content (TPC) (HepG2 cells [8]) [µM] | IC50 (Balb/c 3T3 cells [1]; Mus musculus, BALB/c3T3, Balb/c 3T3, 72 h exposure, mean (n = 3) ± SEM, read-out: Inhibitory concentration IC50, MTT) [µM] | IC50 (Balb/c 3T3 cells [2]; Mus musculus, BALB/c3T3, Balb/c 3T3, 72 h exposure, mean (n = 3) ± SEM, read-out: Inhibitory concentration IC50, TPC) [µM] | IC50 (HepG2 cells [3]; Homo sapiens, HepG2, 72 h exposure, mean (n = 3) ± SEM, read-out: Inhibitory concentration IC50, NRU) [µM] | IC50 (HepG2 cells [4]; Homo sapiens, HepG2, 72 h exposure, mean (n = 3) ± SEM, read-out: Inhibitory concentration IC50, MTT) [µM] | IC50 (HepG2 cells [5]; Homo sapiens, HepG2, 72 h exposure, mean (n = 3) ± SEM, read-out: Inhibitory concentration IC50, LDH) [µM] | Cytotoxicity in B16 cell line [9] | Cytotoxicity in 10T1/2 cell line (10T1/2 cell line) | IC50 (Balb/c 3T3 cells [6]; Mus musculus, BALB/c3T3, Balb/c 3T3, 72 h exposure, mean (n = 3) ± SEM, read-out: Inhibitory concentration IC50, LDH) [µM] | viability at 72 h [10] [%] | IC50 (Balb/c 3T3 cells [7]; Mus musculus, BALB/c3T3, Balb/c 3T3, 72 h exposure, mean (n = 3) ± SEM, read-out: Inhibitory concentration IC50, NRU) [µM] | IC50 (HepG2 cells [8]; Homo sapiens, HepG2, 72 h exposure, mean (n = 3) ± SEM, read-out: Inhibitory concentration IC50, TPC) [µM]
Cc1ncc([N+](=O)[O-])n1CCO.Cc1ncc([N+](=O)[O-])n1CCO.O=[N+]([O-])[O-].[Ag+] [Silver(I) + metronidazole, [(Metronidazole)2AgNO3]] | 0.74 | 3.0 | 6.0 | 6.0 | 6.0 | 0.74 | 3.0 | 3.0 | – | – | – | – | – | – | – | – | – | – | –
OCc1ccncc1 [4-hydroxymethylpyridine] | 13.6 | 57 | – | – | – | – | 7.0 | – | > 227 | > 227 | > 227 | > 227 | > 227 | poorly cytotoxic | poorly cytotoxic | > 227 | > 50 | > 227 | > 227
O=[N+]([O-])[O-].OCc1ccncc1.OCc1ccncc1.[Ag+] [Silver(I) + 4-hydroxymethylpyridine, [(4-hydroxymethylpyridine)2Ag]NO3] | 3.8 | 1.9 | 3.8 | 3.8 | 3.8 | 0.98 | 0.98 | 7.6 | – | – | – | – | – | – | – | – | – | – | –
